Laboratory results: article PMC9569954, “The Antidepressant-like Activity, Effects on Recognition Memory Deficits, Bioavailability, and Safety after Chronic Administration of New Dual-Acting Small Compounds Targeting Neuropsychiatric Symptoms in Dementia” (International Journal of Molecular Sciences, 2022)

How the values were obtained:
[1] = tested on: (+)-MK-801-induced memory deficits; assay: Novel object recognition (NOR) test in (+)-MK-801 treated rats; format: in vivo, male Wistar rats; details: rat; for Total Exploratory Time in T2 Session: vehicle 49.67 ± 4.63
Protocol: The rats were injected with the respective compounds for 21 consecutive days at the minimum active doses selected previously, based on acute treatment and assessment in the NOR test. The protocol for the NOR test was adapted from the original work and the test was performed according to the previously described protocol, 24 h after the last injection of the investigated compound. The discrimination index (DI) was calculated according to the formula:(7) DI=(EB−EA)/(EA+EB) where EB is the exploration time of novel object during the T2 session and EA is the exploration time of […].
PQA-AZ4 and PQA-AZ-6 were administered for 60 and 30 min, respectively, before the T1 phase (the familiarization phase). MK-801 was used to attenuate learning and was administered at a dose of 0.1 mg/kg (i.p.) 30 min before the familiarization phase (T1). The total exploration time in T2 was used to determine the influence of the treatment on the exploratory activity of the animals.

rats [2] = assay: Forced swim test (FST); format: in vivo, male Wistar rats; details: rat
Protocol: The rats were injected for 21 consecutive days at a dose of 1 mg/kg, similar to the dose used in acute treatment, as per data presented in Supplementary Materials (Table S1). The FST was conducted according to the method of Porsolt. On the first day of the experiment, the animals were gently placed individually for 15 min in Plexiglas cylinders (40 cm high, 18 cm in diameter) containing 15 cm of water maintained at 23–25 °C. On removal from water, the rats were placed for 30 min in a Plexiglas box under a 60 W bulb to dry. On the following day (24 h later), the rats were replaced in the cylinder and the total duration of immobility was recorded during the whole 5 min test period. Immobility was assigned when no additional activity was observed other than that necessary to keep the rat’s head above the water. Fresh water was used for each animal.
FST after acute administration of the investigated compounds
Rats were injected 60 min before the test at a dose of 1 mg/kg. FST was carried out according to the method of Porsolt, and the same procedure was used for chronic treatment.
Table S1. Effect of acute treatment of PQA-AZ4, PQA-AZ6, and PQ-10 on the immobility time in the […]
Compound (mg/kg) Immobility time (s)
Compounds were injected i.p. 60 min before the test. Values represent the means ± SEM of immobility in the FST during a 5 min test session. The data were analyzed using one -way ANOVA, followed by Bonferroni‘s post hoc test; NS = nonsignificant; N=7-8.

Bdnf gene = Bdnf gene expression in brain structures (RT-qPCR, ex vivo); set-up: species or system rats; details: rat, 1 mg/kg/day i.p., 21 days
Protocol: Animals in all treatment groups were sacrificed by rapid decapitation immediately after the behavioral tests, when the brains and blood samples were collected. For quantitative reverse transcription-polymerase chain reaction (RT-qPCR), the brains of rats were rapidly removed, and the hippocampus and prefrontal cortex were dissected on an ice-cold glass plate. The tissues were frozen in dry ice and stored at −80 °C until required.
The total RNA was extracted from tissues using an RNA Isolation kit (Thermo Fisher Scientific, Rockford, IL, USA), and its concentration was normalized to 20 ng/μL. Reverse transcription was performed with a High-Capacity Reverse Transcription Kit (Life Technologies, Grand Island, NY, USA). A qPCR fast 96-well reaction plate was used for the process with TaqMan Gene Expression assay (Life Technologies) for brain-derived neurotrophic factor Bdnf (Rn02531967_s1) on an Applied Biosystems® 7500 Fast Real-Time PCR Instrument (Applied Biosystems, Foster City, CA, USA), according to the manufacturer’s protocol. Glyceraldehyde-3-phosphate dehydrogenase, Gapdh (Rn01775763_g1), was selected as endogenous control, based on the pilot experiment. Relative normalized expression was calculated using the ΔΔCq method.

rats [3] = assay: 18-hour spontaneous activity monitoring; format: in vivo, male Wistar rats; details: rat, after 20-day administration, 1 mg/kg/day i.p., 18-h monitoring
Protocol: Spontaneous activity was measured on the 20th day of the treatment with a special, innovative, radio-frequency identification system (RFID-system), TraffiCage (TSE-Systems, Bad Homburg, Germany). The test was conducted according to the method described previously. The animals had RFID transmitters implanted subcutaneously, which tracked the time they spent in different areas of the cage.

Body weight measurement = format: in vivo, rats; details: rat, 20-day administration, 1 mg/kg/day i.p.
Protocol: Body weight was measured every second day, immediately before the administration of drugs.

[4] = Serum glucose, triglyceride and cholesterol concentrations; format: in vivo, rats; details: rat, 1 mg/kg/day i.p., 21 days
Protocol: The blood samples were collected immediately after decapitation and then centrifuged at 600× g […], 4 °C, to separate the plasma. The blood was used to determine metabolic parameters such as glucose, cholesterol, and triglyceride levels, together with liver enzymatic activity.
Standard enzymatic spectrophotometric tests (Biomaxima S.A., Lublin, Poland) were used to determine glucose, cholesterol, and triglyceride levels in the serum. In the presence of an appropriate enzyme, the substrate was converted to a colored compound. Absorbance was measured at a wavelength of 500 nm.

[5] = Ferric-reducing antioxidant power (FRAP) of serum; format: in vivo, rats; details: rat, 1 mg/kg/day i.p., 21 days
Protocol: The assay was performed according to Benzie and Strain [46] with some modifications. The FRAP working solution was prepared before the start of the analysis, namely, 0.3 mol acetate buffer (pH 3.6), 0.01 mol TPTZ (2,4,6-tripyridyl-s-triazine; Sigma-Aldrich) in 0.04 mol HCl (POCh, Gliwice, Poland), and 0.02 M FeCl3×6H2O in water (iron (III) chloride hexahydrate; Chempur, Piekary Śląskie, Poland) were mixed in a volumetric ratio of 10:1:1 and protected from light.
Next, 20 µL of the plasma sample tested, brain homogenate, or FeSO4×7H2O solution was mixed with 180 µL of the FRAP working solution. The mixtures obtained were incubated at 37 °C for 30 min and their absorbance was measured at 593 nm. FeSO4×7H2O (100–1000 µM/L) was used for a calibration curve. Deionized water with FRAP solution was used as a blank.

[6] = chronic 1 mg/kg/day i.p., 21 days

SMILES | Total Exploratory Time in T2 Session ([1]; (+)-MK-801 0.1 mg/kg i.p. + vehicle) [s] | Immobility time (rats [2]; acute 1 mg/kg i.p., 60 min before test, 5 min session, vehicle 255.9 ± 8.6) [s] | antidepressant-like activity in FST (rats [2]; [6]) | decrease of immobility vs. control group in FST (rats [2]; [6]) | Bdnf expression upregulation vs control, hippocampus (Bdnf gene; hippocampus (Hipp)) | Bdnf expression upregulation vs control, prefrontal cortex (Bdnf gene; prefrontal cortex (PFX)) | Total Exploratory Time in T2 Session ([1]; 0.3 mg/kg/day i.p. 21 days + (+)-MK-801 0.1 mg/kg) | effect on (+)-MK-801-induced recognition memory deficits (discrimination index) ([1]; 0.3 mg/kg/day i.p., 21 days, (+)-MK-801 0.1 mg/kg i.p.) | spontaneous activity vs vehicle (rats [3]) | weight gain vs vehicle (Body weight measurement) | serum glucose concentration vs vehicle [4] | serum triglycerides concentration vs vehicle [4] | total cholesterol concentration vs vehicle [4] | total antioxidant activity of serum (Fe2+ formed, FRAP) vs control [5]
C[C@]12N[C@H](Cc3ccccc31)c1ccccc12 [(+)-MK-801, Dizocilpine, reference compound] | 44.00 ± 4.05 |  |  |  |  |  |  |  |  |  |  |  |  | 
COc1cc2ncnc(N3CC[C@@H](Oc4cnc5ccccc5n4)C3)c2cc1OC [PQ-10, 6,7-dimethoxy-4-[(3R)-3-(2-quinoxalinyloxy)-1-pyrrolidinyl]-quinazoline, reference compound] |  | 249.1 ± 10.4 | showed antidepressant-like properties | about 9% | about 17 fold | about 34 fold | 47.13 ± 5.69 F(2,18) = 0.3006; NS s | restored recognition memory deficits | No significant effect | did not result in a change | did not significantly change | did not significantly change | slight but statistically significant (p < 0.05) increase | comparable
